This is an account of results in patent US12501900B2, “Heterocyclyl pyridazine as fungicidal compounds” (Bayer Aktiengesellschaft, priority 2018, dated 2025).

Experiment [1] has as its system Septoria tritici. Put plainly: In vivo preventive test on Septoria tritici (leaf spot on wheat). The following applies: Zymoseptoria tritici, in Triticum aestivum; 500 ppm of active ingredient; preventive spray on wheat; evaluated 19 days after inoculation; read-out: efficacy. Here is the method:
Example: In Vivo Preventive Test on Septoria tritici (Leaf Spot on Wheat)
• Solvent: 5% by volume of Dimethyl sulfoxide • 10% by volume of Acetone • Emulsifier: 1 μl of Tween® 80 per mg of active ingredient
The active ingredients were made soluble and homogenized in a mixture of Dimethyl sulfoxide/Acetone//Tween®80 and then diluted in water to the desired concentration.
The young plants of wheat were treated by spraying the active ingredient prepared as described above. Control plants were treated only with an aqueous solution of Acetone/Dimethyl sulfoxide/Tween®80.
After 24 hours, the plants were contaminated by spraying the leaves with an aqueous suspension of Septoria tritici spores. The contaminated wheat plants were incubated for 72 hours at 17° C. and at 100% relative humidity and then for 15 days at 20° C. and at 90% relative humidity.
The test was evaluated 19 days after the inoculation. 0% means an efficacy which corresponds to that of the control plants while an efficacy of 100% means that no disease was observed.

The subject of a further experiment is Pyrenophora teres. Put plainly: In vivo preventive test on Pyrenophora teres (net blotch on barley). The following applies: 240 h, 500 ppm of active ingredient, preventive spray on barley, evaluated 10 days after inoculation, read-out: efficacy.
The next experiment deals with Alternaria brassicae. Put plainly: In vivo preventive test on Alternaria brassicae (leaf spot on radish or cabbage). Conditions: 144 h, 500 ppm of active ingredient, preventive spray on radish or cabbage, evaluated 6 days after inoculation, read-out: efficacy.
Experiment [2] has as its system Colletotrichum lindemuthianum. Put plainly: Colletotrichum lindemuthianum in vitro cell test. Type of experiment: cell-based. The following applies: 144 h, 20 ppm of active ingredient, liquid culture, 6 days incubation, read-out: efficacy (inhibition of fungal growth).
The next experiment deals with Sphaerotheca fuliginea. Kind of experiment: In vivo preventive test on Sphaerotheca fuliginea (powdery mildew on cucurbits). Conditions: Podosphaera fuliginea, 192 h; 500 ppm of active ingredient; preventive spray on gherkin; evaluated 8 days after inoculation; read-out: efficacy.
In another experiment the test system is Alternaria alternata. Kind of experiment: Alternaria alternata in vitro cell test. Type of experiment: cell-based. Conditions: 120 h, 20 ppm of active ingredient, liquid culture, 5 days incubation, read-out: efficacy (inhibition of fungal growth).
Experiment [3] has as its system Septoria tritici. Put plainly: Septoria tritici in vitro cell test. Type of experiment: cell-based. Conditions: Zymoseptoria tritici, 168 h; 20 ppm of active ingredient; liquid culture, 7 days incubation; read-out: efficacy (inhibition of fungal growth). Here is the method: Example: Septoria tritici In Vitro Cell Test • Solvent: DMSO • Culture medium: 14.6 g anhydrous D-glucose (VWR), 7.1 g Bacteriological Peptone (Oxoid), • 1.4 g granulated Yeast Extract (Merck), QSP 1 liter • Inoculum: spore suspension Fungicides were solubilized in DMSO and the solution used to prepare the required range of concentrations. The final concentration of DMSO used in the assay was ≤1%. A spore suspension of Septoria tritici was prepared and diluted to the desired spore density. Fungicides were evaluated for their ability to inhibit spore germination and mycelium growth in liquid culture assay. The compounds were added in the desired concentration to the culture medium with spores. After 7 days incubation, fungi-toxicity of compounds was determined by spectrometric measurement of mycelium growth. Inhibition of fungal growth was determined by comparing the absorbance values in wells containing the fungicides with the absorbance in control wells without fungicides.

In general, inhibition refers to the change of the read-out against control, counted positive when it falls. For the molecule `COc1cccc(Oc2nnc(Cl)cc2C2=NOCC(Cc3ccc(C)cc3C)N2)c1F` (racemic) [I-005, rac-3-[6-chloro-3-(2-fluoro-3-methoxy-phenoxy)pyridazin-4-yl]-5-[(2,4-dimethylphenyl)methyl]-5,6-dihydro-4H-1,2,4-oxadiazine], the pest or weed control at 500 ppm in the experiment with Septoria tritici [1], in the experiment with Pyrenophora teres, in the experiment on Alternaria brassicae and in the experiment on Sphaerotheca fuliginea was 90 to 100% each time. Besides, the inhibition at 20 ppm in experiment [2] was in the range of 90 to 100%; with Alternaria alternata, 90 to 100%; in the experiment on Septoria tritici [3], 70 to 79%.

For the molecule `C=C(OCC)c1cc(C2=NOCC(Cc3ccc(C)cc3C)N2)c(Oc2cccc(C(F)(F)F)c2)nn1` (racemic) [I-009, rac-5-[(2,4-dimethylphenyl)methyl]-3-[6-(1-ethoxyvinyl)-3-[3-(trifluoro-methyl)phenoxy]pyridazin-4-yl]-5,6-dihydro-4H-1,2,4-oxadiazine], the pest or weed control at 500 ppm in the experiment on Septoria tritici [1], with Pyrenophora teres, in the experiment on Alternaria brassicae and in the experiment with Sphaerotheca fuliginea was 90 to 100% each time. For the same molecule, the inhibition at 20 ppm (in experiment [2]; with Alternaria alternata; in the experiment on Septoria tritici [3]) was 90 to 100% in each case.

Regarding `FC(F)(F)c1cccc(Oc2nnc(Cl)cc2C2=NOCC(Cc3ccc(Br)cc3Cl)N2)c1` (racemic) [I-016, rac-5-[(4-bromo-2-chloro-phenyl)methyl]-3-[6-chloro-3-[3-(trifluoromethyl)phenoxy]pyridazin-4-yl]-5,6-dihydro-4H-1,2,4-oxadiazine], the pest or weed control at 500 ppm with Septoria tritici [1], in the experiment on Pyrenophora teres, with Alternaria brassicae and in the experiment with Sphaerotheca fuliginea was 90 to 100% in each case. Besides, the inhibition at 20 ppm (in experiment [2]; in the experiment on Alternaria alternata; in the experiment with Septoria tritici [3]) was 90 to 100% throughout.

Turning to `COCCOc1c(Cl)nnc(Oc2cccc(C(F)(F)F)c2)c1C1=NOCC(Cc2ccc(C)cc2C)N1` (racemic) [I-072, rac-3-[6-chloro-5-(2-methoxyethoxy)-3-[3-(trifluoro-methyl)phenoxy]pyridazin-4-yl]-5-[(2,4-dimethylphenyl)methyl]-5,6-dihydro-4H-1,2,4-oxadiazine], the pest or weed control at 500 ppm in the experiment on Septoria tritici [1] lay in the range of 90 to 100%; with Pyrenophora teres it was 80 to 89%; with Alternaria brassicae, 90 to 100%; with Sphaerotheca fuliginea, 90 to 100%. Besides, the inhibition at 20 ppm in experiment [2] was in the range of 90 to 100%; in the experiment with Alternaria alternata, 90 to 100%; in the experiment on Septoria tritici [3] it was 80 to 89%.
